Assay results reported in US10081629B2, “Amide derivatives and pharmaceutically acceptable salts thereof, preparation method thereof and medicinal application thereof” (Shanghai Hengrui Pharmaceutical Co., Ltd., priority 2014, dated 2018).

Experiments:
[1] = test system: secretion of PGE2 by A549 cells stimulated with IL-1β; test: Inhibition of the secretion of PGE2 by A549 cells stimulated with IL-1β; assay type: cell-based; conditions: Homo sapiens, IL-1β 0.2 ng/mL
Excerpt: The method described here was used for determining the inhibition activity of the present compounds on the secretion of PGE2 by A549 cells stimulated with IL-1β.
• 1. PGE2 Assay kit (Cisbio, #62P2APEB) • 2. IL-1β (Peprotech, # AF-200-01B) • 3. Cell line: A549 (ATCC: CCL-185) • 4. FlexStation3 microplate reader. II. Experimental Procedure
On the first day, A549 cells were inoculated in a 96-well plate at 40000/well. On the second day, the culture medium in the 96-well plate was removed and then added with 90 μL of compound diluted with culture medium (the concentration of each compound at seven gradient concentrations was 11111 nM, […], 1.11 nM, 0.11 nM and 0.011 nM). The cells were incubated for 30 minutes at 37° C. in an incubator, and then added with IL-1β to a final concentration of 0.2 ng/mL. Then, the cells were incubated for another 24 hours at 37° C. On the third day, 10 μl of supernatant, 5 μL of PGE2-d2 and 5 μL of anti-PGE2 Cryptate were added into a black 384-well plate, and then incubated at 4° C. overnight. HTRF was determined using Flexstation, and the IC50 of the compounds was obtained by data processing software.
The inhibition activity of the present compounds on the secretion of PGE2 by A549 cells stimulated with IL-1β was determined by the assay described above.

[2] = Pharmacokinetics assay in rats; assay type: in vivo; conditions: both sexes, Sprague-Dawley, rat, plasma, po, SD rats, intragastric, 5 mg/kg; for Vd/F: read-out: Apparent Distribution Volume Vz/F; for AUC: read-out: Area Under Curve AUC; for CL/F: read-out: Clearance CLz/F; for half-life: read-out: Half-Life T½ (converted); for MRT: read-out: Mean Residence Time MRT; for Cmax: read-out: Plasma Conc. Cmax
Experimental: Rats were used as test animals. The drug concentration in plasma at different time points was determined by LC/MS/MS after administration of the compounds of Example 8, Example 11, Example 14, Example 17, Example 20, Example 27, Example 33, Example 35, Example 36, Example 37 and Example 48 to rats. The pharmacokinetic behavior of the present compounds was studied and evaluated in rats.
Forty four (44) healthy adult Sprague-Dawley (SD) rats, half male and half female, which were purchased from SINO-BRITSH SIPPR/BK LAB. ANIMAL LTD., CO, with Certificate No.: SCXK (Shanghai) 2008-0016, were divided into 11 groups, with 4 rats in each group.
The appropriate amount of test compounds was weighed, and mixed with 25 μL Tween 80 and Labrasol to prepare a 0.6 mg/mL suspension by ultrasonication.
After an overnight fast, 44 SD rats, half male and half female, were divided into 11 groups, and administered intragastrically at a dose of 5.0 mg/kg and an administration volume of 10 mL/kg.
Blood (0.1 mL) was sampled from the orbital sinus before administration and 0.5 h, 1.0 h, 2.0 h, 4.0 h, 6.0 h, 8.0 h, 11.0 h, and 24.0 h after administration. The samples were stored in EDTA anticoagulation tubes, and centrifuged for 5 minutes at 3,500 rpm to separate the blood plasma. The plasma samples were stored at −20° C. The rats were fed 2 hours after administration.
The plasma concentration of the test compounds in rat after intragastric administration was determined by LC-MS/MS. The linearity of the method is 5.00-2000 ng/mL and 1.00-2000 ng/ml, and the minimum of quantification is 5.00 ng/mL and 1.00 ng/mL.
Plasma samples were analyzed after pretreatment by protein precipitation.

human mPGES1 = human mPGES1 (Homo sapiens (Human), UniProt O14684); test: Inhibition activity for human mPGES1 (enzyme assay, PGE2 HTRF); assay type: biochemical; conditions: membrane protein from HEK-293 F transfected with human mPGES1
Experimental: The method described here is used for determining the inhibition activity of the present compounds for human mPGES1.
• 1. PGE2 Assay kit (Cisbio, #62P2APEB) • 2. Prostaglandin H2 (Sigma, #P7867-1MG) • 3. FlexStation3 microplate reader. II. Experimental Procedure • 1. Obtaining the membrane proteins of mPGES1 enzyme
The cell density of HEK-293 F was grown to 6×10^5 per milliliter and was transferred with the plasmid containing human mPGES1 gene by transfection reagent PEI the next day. The cells were continuously cultured for 72 hours at 37° C. with shaking. After centrifuging at 1100 g for 5 minutes, the cells were harvested. After ultrasonication in an ice bath and centrifugation at 5000 g for 10 minutes, the supernatant was obtained. The supernatant was centrifuged at 100000 g for 1 hour to obtain a precipitate. The precipitate was resuspended with storage buffer containing 10% glycerinum, subpackaged and frozen rapidly under liquid nitrogen, and stored at −80° C. • 2. mPGES1 enzyme assay
mPGES1 was diluted with assay buffer and added into plate at 49 μL/well supplemented with 1 μL of compound (the final concentration of each compound at seven gradient concentrations was 10000 nM, 1000 nM, 100 nM, 10 nM, 1 nM, 0.1 nM and 0.01 nM). […] Then, each well was added with 53.8 μL of 6 mg/mL SnCl2 to quench the reaction. The sample was diluted with dilute buffer at 1:400. 10 μl of diluted sample, 5 μL PGE2-d2 and 5 μL anti-PGE2 Cryptate were added to a black 384-well plate, and incubated at 4° C. overnight. HTRF was determined using Flexstation, and the IC50 of the compounds was obtained by data processing software.
The inhibition activity of the present compounds on mPGES1 was tested by the assay described above.

Chain of human mPGES1 (O14684 whole entry): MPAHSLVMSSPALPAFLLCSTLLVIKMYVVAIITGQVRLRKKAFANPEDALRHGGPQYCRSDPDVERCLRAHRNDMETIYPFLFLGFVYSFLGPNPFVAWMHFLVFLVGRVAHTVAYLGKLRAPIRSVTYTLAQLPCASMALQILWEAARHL

Row | SMILES | IC50 ([1]; A549, 24 hours) [nM] | Vd/F [2] [L/kg] | AUC [2] [ng·h/mL] | CL/F [2] [mL/min/kg] | half-life [2] [h] | MRT [2] [h] | Cmax [2] [ng/mL] | IC50 (human mPGES1) [nM] | IC50 ([1]; A549, 24 h) [nM]
1 | CC(C)(F)C(=O)NCc1cnc(C(F)F)c(C(=O)Nc2ccc3oc(-c4cccc(C(F)(F)F)c4)cc3c2)c1 [Example 48, 2-(Difluoromethyl)-5-(((2-fluoro-2-methyl-propanoyl)amino)methyl)-N-(2-(3-(trifluoromethyl)phenyl)benzofuran-5-yl)nicotinamide] | 14.1 | 7.53 ± 1.69 | 2260 ± 767 | 41 ± 16.7 | 2.3 ± 0.76 | 6.3 ± 1.62 | 263 ± 66 | 3.58 | 
2 | CCn1c(-c2ccc(C(F)(F)F)cc2)cc2cc(NC(=O)c3cc(CNC(=O)C(C)(C)F)cnc3C(F)F)ccc21 [Example 17, 2-(Difluoromethyl)-N-(1-ethyl-2-(4-(trifluoromethyl)phenyl)-1H-indol-5-yl)-5-(((2-fluoro-2-methyl-propanoyl)amino)methyl)nicotinamide] | 12.1 | 20.2 ± 2.6 | 2000 ± 650 | 45.3 ± 15.3 | 5.44 ± 1.23 | 10.4 ± 1.9 | 155 ± 26 | 2.68 | 
3 | Cn1c(-c2cccc(Cl)c2)cc2cc(NC(=O)c3cc(CNC(=O)C(C)(C)F)cnc3C(F)F)ncc21 [Example 36, N-(2-(3-Chlorophenyl)-1-methyl-1H-pyrrolo[2,3-c]pyridin-5-yl)-2-(difluoromethyl)-5-(((2-fluoro-2-methyl-propanoyl)amino)methyl)nicotinamide] | 13.2 | 7.22 ± 1.34 | 3540 ± 1970 | 30.4 ± 17 | 3.69 ± 2.4 | 6.56 ± 3.01 | 459 ± 157 | 4.19 | 
4 | COCCn1c(-c2ccc(C(F)(F)F)cc2)cc2cc(NC(=O)c3cc(CNC(=O)C(C)(C)F)cnc3C(F)F)ccc21 [Example 27, 2-(Difluoromethyl)-5-(((2-fluoro-2-methyl-propanoyl)amino)methyl)-N-(1-(2-methoxyethyl)-2-(4-(trifluoromethyl)phenyl)-1H-indol-5-yl)nicotinamide] | 13.4 | 15.1 ± 1.53 | 1180 ± 247 | 73.3 ± 15.3 | 2.46 ± 0.59 | 5.32 ± 1.03 | 193 ± 23 | 4.77 | 
5 | CCn1c(-c2cccc(Cl)c2)cc2cc(NC(=O)c3cc(CNC(=O)C(C)(C)F)cnc3C(F)F)ccc21 [Example 20, N-(2-(3-Chlorophenyl)-1-ethyl-1H-indol-5-yl)-2-(difluoromethyl)-5-(((2-fluoro-2-methyl-propanoyl)amino)methyl)nicotinamide] | 12.6 | 5.41 ± 1.81 | 8240 ± 2280 | 10.7 ± 2.7 | 5.94 ± 2 | 11.1 ± 3 | 681 ± 195 | 3.54 | 
6 | CCn1c(-c2cccc(Cl)c2)cc2nc(NC(=O)c3cc(CNC(=O)C(C)(C)F)cnc3C(F)F)ccc21 [Example 37, N-(2-(3-Chlorophenyl)-1-ethyl-1H-pyrrolo[3,2-b]pyridin-5-yl)-2-(difluoromethyl)-5-(((2-fluoro-2-methyl-propanoyl)amino)methyl)nicotinamide] | 22.4 | 1.39 ± 0.17 | 23200 ± 14200 | 5.44 ± 4.31 | 4.49 ± 2.93 | 7.34 ± 3.76 | 2350 ± 676 | 6.46 | 
7 | Cn1c(-c2ccc(Cl)cc2)cc2cc(NC(=O)c3cc(CNC(=O)C(C)(C)F)cnc3C(F)F)ccc21 [Example 14, N-(2-(4-Chlorophenyl)-1-methyl-1H-indol-5-yl)-2-(difluoromethyl)-5-(((2-fluoro-2-methyl-propanoyl)amino)methyl)nicotinamide] |  | 17.9 ± 3.12 | 1790 ± 984 | 56.7 ± 25.4 | 4.15 ± 1.59 | 9.25 ± 2.24 | 150 ± 56 | 4.59 | 20.5
8 | CCn1c(-c2ccc(F)cc2)cc2cc(NC(=O)c3cc(CNC(=O)C(C)(C)C)ccc3Cl)ccc21 [Example 8, 2-Chloro-N-(1-ethyl-2-(4-fluorophenyl)-1H-indol-5-yl)5-((2,2-dimethylpropanoylamino)methyl)-benzamide] |  | 10.5 ± 4.66 | 2900 ± 1340 | 32.7 ± 13.1 | 4.69 ± 3.74 | 8.21 ± 4.88 | 346 ± 155 | 3.88 | 19.1
9 | CC(C)(F)C(=O)NCc1cnc(C(F)F)c(C(=O)Nc2ccc3c(c2)CN(c2cccc(C(F)(F)F)c2)C3)c1 [Example 49, 2-(Difluoromethyl)-5-(((2-fluoro-2-methyl-propanoyl)amino)methyl)-N-(2-(3-(trifluoromethyl)phenyl)isoindolin-5-yl)nicotinamide] | 24 |  |  |  |  |  |  | 8.29 | 
10 | Cn1c(-c2cccc(Cl)c2)cc2nc(NC(=O)c3cc(CNC(=O)C(C)(C)F)cnc3C(F)F)ccc21 [Example 35, N-(2-(3-Chlorophenyl)-1-methyl-1H-pyrrolo[3,2-b]pyridin-5-yl)-2-(difluoromethyl)-5-(((2-fluoro-2-methyl-propanoyl)amino)methyl)nicotinamide] | 31.6 | 1.85 ± 0.576 | 37400 ± 36700 | 4.69 ± 3.72 | 11.3 ± 14.5 | 18.8 ± 20.6 | 1510 ± 517 | 4.07 | 
11 | Cn1c(-c2ccc(F)cc2)cc2cc(NC(=O)c3cc(CNC(=O)C(C)(C)C)ccc3Cl)ccc21 [Example 11, 2-chloro-N-(2-(4-fluorophenyl)-1-methyl-1H-indol-5-yl)-5-((2,2-dimethylpropanoylamino)methyl)benzamide] | 16.3 | 5.83 ± 1.14 | 7230 ± 5320 | 19.2 ± 14.1 | 5.27 ± 3.25 | 10.4 ± 5.1 | 572 ± 167 | 5.14 | 
12 | CC(C)(F)C(=O)NCc1cnc(C(F)F)c(C(=O)Nc2ccc3c(c2)cc(-c2ccc(Cl)cc2)n3[C@@H]2CCOC2)c1 [Example 47, (R)-N-(2-(4-Chlorophenyl)-1-(tetrahydrofuran-3-yl)-1H-indol-5-yl)-2-(difluoromethyl)-5-(((2-fluoro-2-methyl-propanoyl)amino)methyl)nicotinamide] | 18.9 |  |  |  |  |  |  | 5.72 | 
